Columns and labels:
[1] = test system: normal human keratinocytes (HKc); assay: Cell growth kinetics of normal keratinocytes; assay type: cell-based; conditions: 4 μM stated for compound 4; 48 h and 72 h; vs DMSO control
Description: (§1) Based on MoIN, the additional manzamine-related compounds such as manzamine D (2), manzamine F (3), 8-hydroxymanzamine A (4), and ircinal A (5) were tested for their biological activities targeting cervical cancer cell lines (SiHa and CaSki).
Generation of Normal Human Keratinocytes (HKc). The generation and processing of normal HKc from de-identified foreskin tissue samples has previously been described in our studies, see Pirisi, L.; Yasumoto, S.; Feller, M.; Doniger, J.; DiPaolo, J. A. J. Virol. 1987, 61, 1061-1066, and was implemented with the following modifications: dispase was used in lieu of collagenase, and a trypsinization step was added to release the epidermal cells. Briefly, to generate normal HKc primary cultures, the foreskin tissue, free of subcutaneous tissue, was placed in 10% dispase in phosphate buffer saline (PBS) and incubated overnight at 37° C. The next day, the epidermis was separated from the dermis, and processed mechanically by shredding the tissue into smaller pieces that were then treated with Trypsin/EDTA for 10 minutes at 37° C. Following the addition of fetal bovine serum (10%) to stop the trypsin action, cells were collected by centrifugation and plated in keratinocytes serum free medium (KSFM).
Cell Growth Kinetics. […] The cell proliferation activity was determined by cell counting under the microscope with a hemocytometer using trypan blue staining.

[2] = test system: cervical cancer cell lines (SiHa and CaSki); assay: Cell growth of manzamine-related compounds; assay type: cell-based, human
Description: as §1
Cell Growth Kinetics. Cervical cancer cells (1×10^6) or HKc (2×10^5) were plated in 100 mm tissue culture petri dish or 6-well plates. Following overnight incubation, cells were treated with 2 μM or 4 μM concentrations of manzamine A (1) derivatives for different time points (24, 48 and 72 hours). Dimethyl sulphoxide (DMSO) was used as control. The cell proliferation activity was determined by cell counting under the microscope with a hemocytometer using trypan blue staining.

Oc1cccc2c1[nH]c1c(C3=C[C@@]4(O)CC/C=C\CCCCN5CC[C@@H]3[C@]3(C[C@@H]6/C=C\CCCCN6[C@H]34)C5)nccc12 [8-hydroxymanzamine A]
cell growth kinetics of normal HKc [1]: inhibited significantly | effect on cervical cancer cell growth [2]: showed inhibition

O=CC1=C[C@@]2(O)CC/C=C\CCCCN3CC[C@@H]1[C@]1(CC4/C=C\CCCCN4[C@H]12)C3 (some centres unmarked) [ircinal A]
effect on cervical cancer cell growth [2]: did not reveal any effect

O[C@]12C=C(C3NCCc4c3[nH]c3ccccc43)[C@@H]3CCN(CCCC/C=C\CC1)C[C@@]31C[C@@H]3/C=C\CCCCN3[C@H]12 (some centres unmarked) [manzamine D]
effect on cervical cancer cell growth [2]: did not reveal any effect

O=C1CCCN2[C@@H](CC1)C[C@]13CN4CCCC/C=C\CC[C@](O)(C=C(c5nccc6c5[nH]c5c(O)cccc56)C1CC4)[C@H]23 (some centres unmarked) [manzamine F]
effect on cervical cancer cell growth [2]: did not reveal any effect
